From patent publication US8946262B2, “Methods of preventing and treating gastrointestinal dysfunction” (Adolor Corporation, priority 2003, dated 2015)

Assays:
[1] = molecular target: μ opioid receptors in the GI tract (Homo sapiens, UniProt P35372); assay: Free alvimopan plasma concentration after a 12 mg oral dose before surgery, compared with Ki; assay type: in vivo, patients
Description: A Practical Introduction to Structure, Mechanism, and Data Analysis, 2nd Edition, (New York: Wiley-VCH, 2000), page 88, the disclosure of which is incorporated herein by reference.
Twelve milligrams of alvimopan (two 6 mg capsules) was administered orally to patients about 120 minutes prior to surgery. The free alvimopan plasma concentration was measured for about 24 hours.

GI transit = GI transit score (GITS) by transit of radio-opaque markers (SITZMARKS) in subjects given loperamide; assay type: in vivo, healthy subjects; settings: for GI Score: x-ray Day 4, group mean, normal 255.56
Description: Subjects were randomly assigned to receive one of the following five treatments: • Group 1: […] Study Assessments Subjects were assessed for their pain at the I.V. infusion site using a categorical four-point verbal scale (i.e., no discomfort/pain, mild discomfort/pain, moderate pain, or severe pain). The Investigator also assessed certain characteristics (e.g., erythema) of the I.V. site (i.e., none, mild, moderate, or severe). Abdominal x-rays and x-rays of stool samples were performed to determine the location of the […] markers. Oral […] capsules were administered on Days 1, 2, and 3 at the same time that study medication is administered each day.

Solubility in water = assay type: physicochemical; settings: except at low or high pH conditions
[2] = Plasma exposure (AUC (τ)) of I.V. alvimopan given for 4 days with loperamide; assay type: in vivo, healthy subjects; settings: group mean
Description: Subjects were randomly assigned to receive one of the following five treatments: • Group 1: […] Study Assessments Serial blood samples were collected for the determination of concentrations of alvimopan and its amide hydrolysis metabolite in plasma. The appropriate dose was drawn into the delivery system, normal saline was added to bring the total volume to 6 mL, and the contents will be mixed thoroughly. Placebo for alvimopan I.V. was 6 mL of normal saline. […] The first eight subjects in each treatment group followed a full sampling schedule and the last four subjects followed a sparse sampling schedule. For the first eight subjects (full sampling schedule), blood samples was collected just prior to administration of alvimopan I.V. on Days 1 through 4 (four samples); and at 0.5, 1, 1.5, 2, 5, 10, 20, 30, and 60 minutes and at 2, 4, 6, 8, 10, 12, 16, 24, 48, 72, 96, 120, 144, and 168 hours after the end of the infusion of alvimopan I.V. on Day 4. This is a total of 27 samples per subject (135 mL per subject). For the last four subjects in each treatment group (sparse sampling schedule), blood was collected prior to administration of alvimopan I.V. on Days 1 through 4 (four samples), and immediately following the last infusion on Day 4. Subjects were randomized to have one sample collected during each of the following intervals, relative to the end of the infusion on Day 4: […]

[3] = Group 3 (alvimopan 1 mg I.V. b.i.d. + loperamide 2 mg p.o. q.i.d.)
[4] = Group 4 (alvimopan 0.45 mg I.V. b.i.d. + loperamide 2 mg p.o. q.i.d.)
[5] = Group 5 (alvimopan 0.1 mg I.V. b.i.d. + loperamide 2 mg p.o. q.i.d.)

Sequence of μ opioid receptors in the GI tract (P35372 whole entry): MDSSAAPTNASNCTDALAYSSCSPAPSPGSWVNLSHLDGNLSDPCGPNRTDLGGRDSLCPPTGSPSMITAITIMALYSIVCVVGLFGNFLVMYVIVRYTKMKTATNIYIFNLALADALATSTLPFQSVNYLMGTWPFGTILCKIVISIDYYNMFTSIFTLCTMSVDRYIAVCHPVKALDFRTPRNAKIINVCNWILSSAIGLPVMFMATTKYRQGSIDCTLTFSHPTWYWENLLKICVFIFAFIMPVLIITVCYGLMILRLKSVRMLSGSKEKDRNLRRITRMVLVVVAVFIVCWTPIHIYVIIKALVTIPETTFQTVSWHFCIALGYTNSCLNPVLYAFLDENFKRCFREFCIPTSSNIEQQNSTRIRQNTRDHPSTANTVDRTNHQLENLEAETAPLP

Row | Maximum free plasma concentrations achieved relative to the Ki ([1]; single 12 mg oral dose, FIG. 1) [fold] | receptor occupancy at 12 mg ([1]; single 12 mg oral dose, read-out: estimated receptor occupancy) [%] | solubility in water (Solubility in water) | AUC (τ) of Alvimopan [2, 3] [ng·mL/h] | AUC (τ) of Alvimopan [2, 4] [ng·mL/h] | AUC (τ) of Alvimopan [2, 5] [ng·mL/h] | Compound | free plasma concentrations versus saturation of μ opioid receptors in the GI tract ([1]; single 12 mg oral dose (two 6 mg capsules), about 120 minutes prior to surgery, FIG. 1) | GI Score (GI transit; [3]) | GI score compared with Group 2 (loperamide + placebo) and normal (Group 1) (GI transit; Group 4) | GI Score (GI transit; [4]) | GI score compared with Group 2 (loperamide + placebo) and normal (Group 1) (GI transit; Group 5) | GI Score (GI transit; [5]) | GI Score (GI transit; Group 2: loperamide 2 mg p.o. q.i.d. + placebo for alvimopan I.V.)
1 | 11 | > 68 | low solubility in water | 4.36 | 22.06 | 49.79 | C[C@H]1CN(C[C@H](Cc2ccccc2)C(=O)NCC(=O)O)CC[C@@]1(C)c1cccc(O)c1 [alvimopan, [[(2S)-2-[[(3R,4R)-4-(3-hydroxyphenyl)-3,4-dimethylpiperidin-1-yl]methyl]-3-phenylpropanoyl]amino]acetic acid dihydrate] | sufficient to substantially saturate μ opioid receptors in the GI tract | 231 | statistically different from Group 2 | 274.62 | statistically different from Group 2 | 278.5 | –
2 | – | – | – | – | – | – | CN(C)C(=O)C(CCN1CCC(O)(c2ccc(Cl)cc2)CC1)(c1ccccc1)c1ccccc1 [loperamide, reference compound] | – | – | – | – | – | – | 208.67
